Data taken from ChEMBL document CHEMBL5113529, “Design, Synthesis, and Biological Evaluation of Dual-Target COX-2/CYP51 Inhibitors for the Treatment of Fungal Infectious Diseases” (J Med Chem, 2022).
pIC50: −log10 of the molar value. Active and inactive are the calls of the source. The rule behind the calls is not given here.

How the values were obtained:
[1] = Toxicity in mouse infected with Candida albicans assessed as kidney injury at 10 ug per 20 g, ip administered on day 2, 4, 6, 8, 10 and 12 and measured on day 14 by H and E staining based assay; type: organism-based; settings: in vivo, 336 h, dose 10 µg, time 14 day
Candida albicans [2] = experiment: Induction of morphological changes in Candida albicans ATCC SC5314 assessed as edema cavitation measured for 48 to 72 hrs by transmission electron microscopic analysis; type: functional, organism-based; settings: time 48-72 hrs
[3] = Toxicity in mouse infected with Candida albicans assessed as liver injury at 10 ug per 20 g, ip administered on day 2, 4, 6, 8, 10 and 12 and measured on day 14 by H and E staining based assay; type: organism-based; settings: in vivo, 336 h, dose 10 µg, time 14 day
Mus musculus [4] = organism: Mus musculus; experiment: Antiinflammatory activity against mouse infected with Candida albicans ATCC SC5314 assessed as reduction in NLRP3 expression in spleen by Western blot analysis; type: functional, organism-based
Candida albicans [5] = experiment: Induction of morphological changes in Candida albicans ATCC SC5314 assessed as ribosome abscission measured for 48 to 72 hrs by transmission electron microscopic analysis; type: functional, organism-based; settings: time 48-72 hrs
[6] = Toxicity in mouse infected with Candida albicans assessed as lung injury at 10 ug per 20 g, ip administered on day 2, 4, 6, 8, 10 and 12 and measured on day 14 by H and E staining based assay; type: organism-based; settings: in vivo, 336 h, dose 10 µg, time 14 day
[7] = Toxicity in Candida albicans ATCC SC5314 infected-mouse assessed as effect on body weight at 10 ug per 20 g, ip administered on day 2, 4, 6, 8, 10 and 12 and measured on day 14; type: organism-based; settings: in vivo, 336 h, dose 10 µg, time 14 day
Candida albicans [8] = experiment: Antifungal actvity against Candida albicans ATCC SC5314 infected in mouse assessed as shrinking of infection region at 10 ug per 20 g, ip administered on day 2, 4, 6, 8, 10 and 12 and measured on day 14; type: functional, organism-based; settings: dose 10.0 µg, time 14.0 day
[9] = Toxicity in mouse infected with Candida albicans assessed as heart injury at 10 ug per 20 g, ip administered on day 2, 4, 6, 8, 10 and 12 and measured on day 14 by H and E staining based assay; type: organism-based; settings: in vivo, 336 h, dose 10 µg, time 14 day
Mus musculus [10] = organism: Mus musculus; experiment: Antiinflammatory activity in mouse infected with Candida albicans ATCC SC5314 assessed as reduction in MMP-9 expression in spleen by hematoxylin staining based inverted microscopic analysis (reference value: 36.74 a.u.); type: functional
[11] = Toxicity in mouse infected with Candida albicans assessed as spleen injury at 10 ug per 20 g, ip administered on day 2, 4, 6, 8, 10 and 12 and measured on day 14 by H and E staining based assay; type: organism-based; settings: in vivo, 336 h, dose 10 µg, time 14 day
Mus musculus [12] = organism: Mus musculus; experiment: Antiinflammatory activity in mouse infected with Candida albicans ATCC SC5314 assessed as reduction in COX-2 expression in spleen by hematoxylin staining based inverted microscopic analysis (reference value: 83.52 a.u.); type: functional
Candida albicans [13] = experiment: Antifungal actvity against Candida albicans ATCC SC5314 infected in mouse assessed as reduction in infection at 10 ug per 20 g, ip administered on day 2, 4, 6, 8, 10 and 12 and measured on day 14; type: functional, organism-based; settings: time 14.0 day
[14] = target: Prostaglandin G/H synthase 1 (Homo sapiens, UniProt P23219); experiment: Inhibition of COX-1 (unknown origin) using arachidonic acid as substrate preincubated for 10 mins followed by substrate addition and measured after 2 mins by immunoassay
[15] = target: T1, Prostaglandin G/H synthase 2 (Homo sapiens, UniProt P35354); experiment: Inhibition of COX-2 (unknown origin) using arachidonic acid as substrate preincubated for 10 mins followed by substrate addition and measured after 2 mins by immunoassay
T1 sequence (P35354 whole entry): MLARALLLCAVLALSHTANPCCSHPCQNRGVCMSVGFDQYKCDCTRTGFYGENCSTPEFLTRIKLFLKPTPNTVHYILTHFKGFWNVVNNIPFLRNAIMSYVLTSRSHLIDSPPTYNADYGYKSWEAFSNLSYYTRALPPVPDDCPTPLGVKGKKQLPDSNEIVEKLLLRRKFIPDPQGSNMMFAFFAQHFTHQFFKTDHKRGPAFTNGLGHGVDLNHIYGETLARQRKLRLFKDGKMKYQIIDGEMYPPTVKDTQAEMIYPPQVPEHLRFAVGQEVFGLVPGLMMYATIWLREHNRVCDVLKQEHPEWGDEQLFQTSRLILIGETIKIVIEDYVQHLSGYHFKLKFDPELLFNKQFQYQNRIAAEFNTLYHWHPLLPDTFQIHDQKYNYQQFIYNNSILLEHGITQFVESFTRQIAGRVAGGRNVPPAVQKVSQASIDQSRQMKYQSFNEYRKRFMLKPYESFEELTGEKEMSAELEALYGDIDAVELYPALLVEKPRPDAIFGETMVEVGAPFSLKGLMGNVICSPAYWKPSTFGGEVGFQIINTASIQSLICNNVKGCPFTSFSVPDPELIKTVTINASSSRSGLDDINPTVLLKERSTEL

Mus musculus [16] = organism: Mus musculus; experiment: Antiinflammatory activity against mouse infected with Candida albicans ATCC SC5314 assessed as reduction in MMP-9 expression in spleen by Western blot analysis; type: functional, organism-based
Candida albicans [17] = experiment: Antifungal activity against Candida albicans ATCC SC5314 assessed as induction of ROS production by measuring fluorescence intensity incubated for 12 hrs by KGT010-1 staining based fluorescence microscopy; type: functional, organism-based
Candida albicans [18] = experiment: Antifungal activity against Candida albicans ATCC SC5314 assessed as fungal growth inhibition measured after 72 hrs in presence of naproxen by double dilution method; type: functional
[19] = Toxicity in mouse infected with Candida albicans assessed as AST level in plasma at 10 ug per 20 g, ip administered on day 2, 4, 6, 8, 10 and 12 and measured on day 14 in presence of naproxen (reference value: 74.9 +/- 6.7 IU/L); type: organism-based; settings: in vivo, 336 h, dose 10 µg, time 14 day
Candida albicans [20] = experiment: Antifungal activity against fluconazole- resistant Candida albicans CaR assessed as fungal growth inhibition measured after 72 hrs in presence of naproxen by double dilution method; type: functional
Candida albicans [21] = experiment: Antifungal actvity against Candida albicans ATCC SC5314 infected in mouse assessed as reduction in fungal infection at 10 ug per 20 g, ip administered on day 2, 4, 6, 8, 10 and 12 and measured on day 14 in presence of naproxen; type: functional, organism-based; settings: dose 10.0 µg, time 14.0 day
Aspergillus fumigatus = experiment: Antifungal activity against Aspergillus fumigatus KM8001 assessed as fungal growth inhibition measured after 72 hrs in presence of naproxen by double dilution method; type: functional
Candida tropicalis = experiment: Antifungal activity against Candida tropicalis ATCC 1369 assessed as fungal growth inhibition measured after 72 hrs in presence of naproxen by double dilution method; type: functional
Candida albicans [22] = experiment: Antifungal activity against fluconazole- resistant Candida albicans 17# assessed as fungal growth inhibition measured after 72 hrs in presence of naproxen by double dilution method; type: functional
Candida albicans [23] = experiment: Antifungal activity against fluconazole- resistant Candida albicans 904 assessed as fungal growth inhibition measured after 72 hrs in presence of naproxen by double dilution method; type: functional
Mus musculus [24] = organism: Mus musculus; experiment: Antiinflammatory activity in mouse infected with Candida albicans ATCC SC5314 assessed as reduction in COX-2 expression in spleen in presence of naproxen by hematoxylin staining based inverted microscopic analysis; type: functional

Sequence of Prostaglandin G/H synthase 1 (P23219 whole entry): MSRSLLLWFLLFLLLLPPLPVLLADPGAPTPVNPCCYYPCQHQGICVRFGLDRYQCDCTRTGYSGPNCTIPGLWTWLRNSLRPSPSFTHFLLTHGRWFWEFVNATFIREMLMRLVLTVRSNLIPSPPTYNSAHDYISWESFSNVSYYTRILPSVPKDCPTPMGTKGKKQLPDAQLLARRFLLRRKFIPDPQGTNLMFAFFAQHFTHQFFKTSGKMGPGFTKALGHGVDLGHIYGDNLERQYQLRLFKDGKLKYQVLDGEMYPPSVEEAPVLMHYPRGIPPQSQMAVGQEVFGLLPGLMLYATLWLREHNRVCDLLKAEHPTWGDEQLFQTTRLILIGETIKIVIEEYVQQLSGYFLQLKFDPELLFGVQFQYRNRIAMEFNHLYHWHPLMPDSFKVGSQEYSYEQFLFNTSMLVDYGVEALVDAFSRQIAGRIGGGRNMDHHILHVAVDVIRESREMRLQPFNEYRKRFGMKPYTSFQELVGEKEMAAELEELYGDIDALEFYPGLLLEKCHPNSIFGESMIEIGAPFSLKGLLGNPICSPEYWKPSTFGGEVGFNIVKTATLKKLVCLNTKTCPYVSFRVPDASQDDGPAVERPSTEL

Structure (SMILES)	Activity [1]	Activity [3]	Activity (Mus musculus [4])	Activity [6]	Activity [7]	Activity (Candida albicans [8])	Activity [9]	Activity (Mus musculus [10])	Activity [11]	Activity (Mus musculus [12])	Activity (Candida albicans [13])	pIC50 [14]	pIC50 [15]	Activity (Mus musculus [16])	Activity (Candida albicans [17])	further results
COc1ccc2cc([C@H](C)C(=O)NC(Cn3cncn3)C(=O)c3ccccc3)ccc2c1 (stereo partly specified)	Non-Toxic	Non-Toxic	Active	Non-Toxic	Non-Toxic	Active	Non-Toxic	12.13 a.u.	Non-Toxic	20.15 a.u.	Active	< 4.30	5.71	Active		Activity (Candida albicans [2]): Active; Activity (Candida albicans [5]): Active
CC(C)NC(=O)[C@@H](Cn1ccnc1)NC(=O)[C@@H](C)c1cccc(C(=O)c2ccccc2)c1			Active		Non-Toxic	Active		12.13 a.u.		20.15 a.u.		< 4.30	5.52	Active	Active	
OC(Cn1cncn1)(Cn1cncn1)c1ccc(F)cc1F [FLUCONAZOLE]	Non-Toxic	Non-Toxic		Non-Toxic			Non-Toxic		Non-Toxic		Active				Active	MIC50 (Candida albicans [18]): 0.25 µg/mL; Activity [19]: 76.4 IU/L; MIC50 (Candida albicans [20]): 2 µg/mL; Activity (Candida albicans [21]): Active; MIC50 (Aspergillus fumigatus): 4 µg/mL; MIC50 (Candida tropicalis): 0.5 µg/mL; MIC50 (Candida albicans [22]): 4 µg/mL; MIC50 (Candida albicans [23]): 2 µg/mL; Activity (Mus musculus [24]): 55.7 a.u.
